Results from patent US20240156764A1, “INHIBITION OF URACIL DNA GLYCOSYLASE IN THE OPEN CONFORMATION” (CASE WESTERN RESERVE UNIVERSITY, priority 2022, published 2024).

Tested on: uracil removal (U:G base pair) in MCF-7 cells
Assay: Host-cell reactivation assay, uracil removal from reporter plasmid, MCF-7
Assay type: cell-based, human
Method: A: MCF-7 cells were seeded at 50,000 cells per well in a 12-well plate. B: HAP cells (wild type or UNG gene knockout) were seeded at 75,000 cells per well in a 6-well plate. […] After 24 hours, cells were dissociated by trypsinization and analyzed by flow cytometry using an Atune NxT flow cytometer. Gating and compensation were determined by transfection of single-color controls. Reporter expression was calculated for each dose of ATA as previously described in publications and normalized to DMSO treatment.
Panel A: 1.25 μM and panel B: 2.5 μM. Reporter expression was calculated for each dose of ATA as described in prior publications and normalized to DMSO treatment.
Removal of uracil in cells was measured using a reporter plasmid containing a dU:dG base pair (referred to as BFP_U), as described previously. […] The reciprocal of BFP_U reporter expression was calculated for each experimental condition. […] This creates a premature stop codon, completely abolishing fluorescence. Removal of thymidine followed by insertion of dC opposite dG restores reporter fluorescence.
Human breast cancer MCF-7 cells were seeded at 50,000 cells per well in a 12-well plate, while HAP cells (wild type or UNG knockout) were seeded at 75,000 cells per well in a 6-well plate. […] After 24 hours, cells were dissociated by trypsinization and analyzed by flow cytometry using an Atune NxT flow cytometer. […]

With `O=C(O)C1=CC(=C(c2ccc(O)c(C(=O)O)c2)c2ccc(O)c(C(=O)O)c2)C=CC1=O` [ATA, aurintricarboxylic acid] the “uracil removal in MCF-7 cells” value (ATA 2.5 μM, 24 hr) was “significantly inhibited uracil removal” and the “uracil removal in MCF-7 cells at increasing concentrations” value (ATA up to 10 μM vs 2.5 μM) was “not statistically different from the 2.5 μM dose”.
